# Reference: US9072729B2, “Method for treating fibrosis and cancer with imidazolium and imidazolinium compounds” (Agency for Science, Technology and Research, priority 2008, dated 2015)
# Assays:
# Type in all cases: cell-based, rat
# [1] = test system: HSC-T6 cells; experiment: Glutathione (GSH) and GSSG assays; conditions: 48 h
# Description: FIG. 3. […] (c) DBZIM and (d) TDBZIM both suppressed cellular GSSG (the oxidation product of GSH). (e) DBZIM and (f) TDBZIM both enhanced the GSH/GSSG ratio. HSC-T6 cells were incubated with compounds of various concentrations for 48 h, and assayed for the total GSH and GSSG amounts. The GSH/GSSG ratio was calculated as (GSH−GSSG)/GSSG. The GSH and GSSG amounts were normalized against the total protein. Note that DBZIM was dissolved in DMSO, and TDBZIM was dissolved in H2O. The data were presented as mean and SEM, N=6, *^aP<0.05, *^bP<0.01, *^cP<0.005, and *^dP<0.0005, when compared to the vehicle control.
# Total cellular GSH and GSSG levels were determined by using assay kits from Cayman Chemical (Ann Arbor, Mich., USA) following the manufacturer's instructions. Briefly, HSC-T6 cells treated with DBZIM, TDBZIM, NAC, or EGCG were scalped and homogenized in phosphate buffered saline (PBS) by sonication at 60% frequency for 30 s, and the supernatant was collected after centrifugation at 16,000×g for 10 min at 4° C. Protein content of the samples was determined by bicinchonicic acid (BCA) assay.
# For GSH assays, the protein sample was deproteinated by metaphosphoric acid (Aldrich, Catalog No. 23927-5), and the pH was adjusted by triethanolamine (Aldrich, Catalog No. T5830-0) according to the manual. The sample was ready for assaying total GSH including both the reduced and oxidized forms. Quantification of GSSG, exclusive of GSH, was performed by first derivatizing GSH with 2-vinylpyridine and assaying separately. Colorimetric signal was recorded at 405 nm with a Tecan Safire II plate reader. The levels of GSH or GSSG were determined as nmol/μg protein.
# [2] = test system: GFAP-LacZ transgene; experiment: β-galactosidase activity in T6/GFAP-lacZ cells
# Description: FIG. 12. (a) DBZIM and (b) TDBZIM attenuated GFAP-LacZ transgene as reported by β-galactosidase activity. Stable transfected T6 GFAP-LacZ cells were treated with compounds of 1-300 μM concentrations, and assayed after 24 h and 48 h. The (3-galactosidase activity was normalized to the total protein, and presented as relative value after comparing to the vehicle control. The data were presented as mean and SEM, N=6, *^cP<0.005, and *^dP<0.0005, when compared to the vehicle control.
# Beta-galactosidase activity in extracts from T6/GFAP-lacZ cells treated by DBZIM or TDBZIM was measured using a chemiluminescent assay kit (Roche, Mannheim, Germany) in a 96-well plate format, according to the manufacturer's instructions. Briefly, cells were washed twice with ice-cold 1×PBS (pH 7.4), and lysed for 30 min at room temperature in the lysis buffer. The supernatant was collected for assays with a Tecan Sere II plate reader. Protein concentration was determined with a BCA protein assay kit (Pierce, Ill., USA). Specific β-galactosidase activity was obtained by normalizing against total cellular protein content.
# [3] = test system: HSC-T6 cells; experiment: Cellular ROS determination (DCF labeling); conditions: 48 h
# Description: FIG. 2. (a) DBZIM and (b) TDBZIM attenuated cellular ROS level. HSC T6 cells were incubated with DBZIM (10, 50, 100 and 300 μM), TDBZIM (10, 50 and 100 μM), NAC (1 mM) and EGCG (25 μM) for 48 h before assaying for cellular ROS levels. The data were presented as relative values after normalizing against a vehicle control. The data were presented as mean and SEM, N=6, *^bP<0.01, *^cP<0.005, and *^dP<0.0005 when compared to the vehicle, control.
# The ROS level of treated HSC-T6 cells was determined using the dichlorofluorescein (DCF) labeling method (Molecular Probes Inc., OR, USA). Cultured cells were harvested by trypsinization, and resuspended in phenol red-free DMEM (Invitrogen). Cells were then incubated with 10 μg/ml of 2′,7′-dichloro-fluorescein diacetate (DCFH-DA) in DMEM for 15 min before resuspension in DMEM for assaying. Cell solution was dispensed into a black-wall 96-well pate in triplicate for fluorescence readout at Ex=485 nm and Em=530 nm with a Tecan Safire II plate reader. The fluorescence unit was normalized against viable cell numbers, which were determined using 3-(4,5-dimethylthiazol-2-yl)-2,5-diphenyl tetrazolium bromide (MTT assay, Promega, Wis., USA). Cellular ROS level was expressed relative to the control sample.
# [4] = test system: GPx; experiment: Glutathione peroxidase (GPx) activity assay in treated cells
# Description: FIG. 4. Effect of DBZIM and TDBZIM on GPx, CAT, SOD and GST. DBZIM affected (a) GPx activity and (c) CAT activity in a dosage-dependent manner. TDBZIM suppressed (b) GPx activity and (d) CAT activity. (e) DBZIM and (f) TDBZIM had little effect on SOD activity. (g) DBZIM induced GST activity. HSC T6 cells were treated with compounds of various concentrations for 48 h, and homogenized by sonication (60% frequency for 30 s) in PBS (pH 7.4, 1 mM of EDTA) for GPx, GST and CAT assays, or in 20 mM of HEPES buffer containing 1 mM of EGTA, 210 mM of mannitol and 70 mM of sucrose (pH 7.2) for SOD assay. Enzyme activity was normalized against total protein. DBZIM was dissolved in DMSO, and TDBZIM was dissolved in H2O. The data were presented as mean and SEM, N=6, *^aP<0.05, *^bP<0.01, *^cP<0.005, and *^dP<0.0005, when compared to the vehicle control.
# Activity levels of three anti-oxidant enzymes, GPx, CAT and SOD, were determined using assay kits from Cayman Chemical. To assay GPx and CAT activities, protein samples were harvested in ice-cold PBS containing 1 mM of EDTA. To assay SOD activity, protein samples were prepared in 20 mM of N-(2-hydroxyethyl)-piperazine-N′-2-ethanesulfonic acid (HEPES) buffer containing 1 mM of ethylene glycol-bis(2-aminoethylether)-N,N,N′,N′-tetraacetic acid (EGTA), 210 mM of mannitol and 70 mM of sucrose. Protein content was determined by BCA assay.
# GPx activity was indirectly measured by a coupled reaction with GSH reductase. Oxidized GSH, produced upon reduction of H2O2 by GPx, is recycled to its reduced state by glutathione reductase (GR) and nicotinamide adenine dinucleotide phosphate (NADPH). The oxidation of NAPDH is proportional to the GPx activity, and can be measured as a decrease in absorbance at 340 nm. GPx activity was expressed as nmol/min/mg protein.
compound,measurement,setting,value
"1,3,5-tris(4-methyl-imidazolium)-linked cyclophane.3Br [TDBZIM]",depletion of GSSG,[1]; 10 μM,12%
same,enhancement of GSH/GSSG ratio,[1]; 10 μM,14%
same,depletion of GSSG,[1]; 50 μM,35%
same,enhancement of GSH/GSSG ratio,[1]; 50 μM,65%
same,depletion of GSSG,[1]; 100 μM,50%
same,enhancement of GSH/GSSG ratio,[1]; 100 μM,106%
same,effect on total cellular GSH level,[1]; 10-100 μM,did not alter
same,suppression of β-galactosidase activity (transient),"[2]; 100 μM, 24 h",20%
same,suppression of cellular ROS level,[3]; 10 μM,19%
same,suppression of cellular ROS level,[3]; 100 μM,36%
same,attenuation of GPx activity,"[4]; 10 μM, 48 h",18%
same,attenuation of GPx activity,"[4]; 50 μM, 48 h",25%
same,attenuation of GPx activity,"[4]; 100 μM, 48 h",34%
"[Br-].c1ccc(Cn2cc[n+](Cc3ccccc3)c2)cc1 [DBZIM, 1,3-bisbenzylimidazolium bromide]",attenuation of total GSH level,[1]; 10 μM,7%
same,depletion of GSSG,[1]; 10 μM,13%
same,enhancement of GSH/GSSG ratio,[1]; 10 μM,8%
same,attenuation of total GSH level,[1]; 50 μM,12%
same,depletion of GSSG,[1]; 50 μM,23%
same,enhancement of GSH/GSSG ratio,[1]; 50 μM,15%
same,attenuation of total GSH level,[1]; 100 μM,20%
same,enhancement of GSH/GSSG ratio,[1]; 100 μM,23%
same,GSH/GSSG ratio relative to control group,[1]; 300 μM,7.4 fold
same,depletion of GSSG,[1]; 300 μM,85%
same,enhancement of total GSH level,"[1]; 300 μM, without statistical significance",8%
same,depletion of GSSG,[1]; 1001 μM,35%
same,suppression of β-galactosidase activity,[2]; 100 μM,25%
same,suppression of β-galactosidase activity,[2]; 300 μM,34%
same,suppression of cellular ROS level,[3]; 50 μM,25%
same,suppression of cellular ROS level,[3]; 300 μM,34%
same,attenuation of GPx activity,"[4]; 10 μM, 48 h",10%
same,attenuation of GPx activity,"[4]; 50 μM, 48 h",10%
same,enhancement of GPx activity,"[4]; 300 μM, 48 h",15%
"(−)-Epigallocatechin gallate [EGCG, reference compound]",reduction of GSSG (references),"[1]; EGCG 25 μM, NAC 5 mM",42%
same,increase in GSH/GSSG ratio (references),"[1]; NAC 5 mM, EGCG 25 μM",2 fold
same,induction of total GSH (references),"[1]; NAC 5 mM, EGCG 25 μM",19%
same,attenuation of cellular ROS level (references),"[3]; EGCG 25 μM, NAC 1 mM",14%
same,attenuation of GPx activity (references),"[4]; EGCG 25 μM, NAC 5 mM",53%
